# Source: patent publication US7094752B2 (Chiron Corporation, priority 1997, dated 2006)
# Key:
# soluble uPAR = soluble uPAR (Homo sapiens, UniProt Q03405); type: binding; design: sUPAR, soluble truncated form of the urokinase receptor; made in house; host or cells: baculovirus-infected Sf9 insect cells
# Description: Streptavidin, 100 μl (0.1 mg/ml) in 50 mM Na2CO3, pH 9.6, was added to MaxiSorp wells (Nunc), incubated overnight at 4 C, and then washed with PBS/BSA. Biotinylated sUPAR (25 nM in PBS/BSA) was added to the wells and incubated for 2 hours at room temperature prior to washing. Competitive peptide inhibitors were added to the wells immediately prior to addition of the bacteriophage. The wells were incubated for one hour at room temperature, then washed and bound bacteriophage eluted with 6M urea in 0.1N HCl, pH 2.5. After 15 minutes, the urea eluate was brought to neutral pH by addition of 2M Tris base and the bacteriophage titers of input stocks and elutions measured by plaque formation assay. Results were expressed as the percent of input bacteriophage which bind to the wells. Alternatively, the amount of bacteriophage was determined in an ELISA where phage were preincubated with HRP-conjugated anti-M13 antibody for 30 minutes at room temperature before dispensing into wells prepared as above and incubated for one hour at room temperature. The final anti-M13 conjugate dilution was 1:4000. After washing, TMB substrate (100 μl/well) was added and color development was stopped with 0.8N H2SO4 (100 μl/well). The absorbance at 450 nm was then measured in a 96 well plate reader.
# In a uPAR binding assay, the following analogs were tested in a competition with phage displaying either peptide 25 or peptide 9. The analogs comprise both natural and unnatural amino acids.
# The analogs were tested in an assay utilizing soluble uPAR, similar to the method described in Example 2. The analogs were tested for their ability to compete with phage displaying either peptide 9 or peptide 25. Analogs 3–61 were tested in competition with peptide 25. Analogs 62–96 were tested in competition with peptide 9. Approximately 10^8 plaque forming units of the phage were used in the assay.
# The analogs were tested at a concentration at 40 μM in the uPAR competition assay with phage displaying peptide 25. The results below show which analogs were active.
# Analogs 31–61 were tested for their ability to compete with phage displaying peptide 25. The active analogs were tested further at two concentrations, 5 μM and 2.5 μM. These concentrations were calculated based on the synthesis reactions. However, the sequences * were further tested and determined to contain high amounts of amino acids and the quantity tested could have been higher than 5 μM or 2.5 μM.
# suPAR = target: T1, suPAR (Homo sapiens, UniProt Q03405); test: SuPAR:1-anilino-8-napthalenesulfonate (ANS) fluorescence; type: binding; details: 2 μM sUPAR, 10 μM ANS, 0 to 20 μM competitor
# T1 construct: sUPAR, soluble truncated form of the urokinase receptor; made in house; host or cells: baculovirus-infected Sf9 insect cells
# T1 sequence (Q03405 23-305 limits assumed): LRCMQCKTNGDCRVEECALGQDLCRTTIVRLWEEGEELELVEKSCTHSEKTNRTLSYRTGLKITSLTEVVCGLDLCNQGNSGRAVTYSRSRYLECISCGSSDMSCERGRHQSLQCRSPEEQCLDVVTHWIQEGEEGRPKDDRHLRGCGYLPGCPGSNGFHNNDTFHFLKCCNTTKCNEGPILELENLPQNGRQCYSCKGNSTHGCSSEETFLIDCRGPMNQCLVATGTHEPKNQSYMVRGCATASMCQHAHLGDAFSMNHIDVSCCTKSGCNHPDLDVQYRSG
# Description: Determination of the effect of various peptide ligands on sUPAR/ANS fluorescence was performed following a procedure similar to that of Ploug et al, Biochem. 33: 8991–8997 (1994). Fluorescence emission spectra of sUPAR/ANS solutions with or without competitors were obtained using an Hitachi F-4500 fluorescence spectrophotometer with an excitation wavelength of 386 nm, 5-nm band-pass excitation and emission slits, and a 10 mm path length quartz cuvette. The emission spectra from 400 to 600 nm were recorded. For competition measurements, dilutions of a stock sUPAR/ANS solution were made to give individual 0.5 ml aliquots with a final concentration of 2 μM sUPAR, 10 μM ANS, and 0 to 20 μM competitor in PBS containing 10% DMSO. Fluorescence measurements were made after a one hour incubation at 25° C.
# [1] = test system: GPI-uPAR dependent adhesion of 293 cells to vitronectin; test: Adhesion of GPI-uPAR expressing 293 cells to vitronectin; type: cell-based
# Excerpt: In order to ascertain whether cytoskeletal connecting elements important to integrin-dependent adhesion were also involved in adhesion mediated by uPAR, embryonic kidney cells (293 cells) were engineered to coexpress uPAR along with a chimeric protein comprised of the β1 cytoplasmic tail fused with the transmembrane domain of […] (CD4). […] Co-expression of uPAR with β1 cytoplasmic domains completely abrogated uPAR-dependent vitronectin adhesion. Clones expressing full length or truncated β1 cytoplasmic tails prepared as in Lukashev et al, J. Biol. Chem. 26: 18311 (1994) were transfected with cDNA for GPI-uPAR and selected as in Wei et al, J. Biol. Chem. 169: 32380 (1994). Chimeric β1 expression was induced by cadmium for 6 hours prior to assaying adhesion to vitronectin at 37° C. Following induction of full length β1 chimerics, essentially no cells were adherent to vitronectin-coated surfaces whereas co-transfectants expressing the truncated β1 adhered avidly.
# Cell adhesion assays were conducted to determin whether the observed uPAR/β1/caveolin complexes were functionally relevant.
# To test this hypothesis further, a phage display peptide library was screened for uPAR-binding phages. A number of phage peptides were isolated as described in Goodson et al, Proc. Natl. Acad. Sci. U.S.A. 91: 7129 (1994). […]
# soluble uPAR, sequence (Q03405 23-305 limits assumed): as above
substance,measurement,setting,value
H-AESTYHHLSLGYMYTLN-NH2 [peptide 25],% Inhibition 2.5 uM,soluble uPAR; 2500.0,45%
same,% Inhibition 5 uM,soluble uPAR; 5000.0,59%
same,effect on ANS fluorescence enhancement in the presence of uPAR,suPAR,no effect
same,IC50,[1],~60 µM
